From publication PMC10692721, “Drug discovery for heart failure targeting myosin-binding protein C” (The Journal of Biological Chemistry, 2023)
Entries after “also recorded” stand apart in the source; their conditions may differ.

What was measured:
[1] = test system: rabbit fast skeletal (psoas) myofibrils; experiment: Skeletal myofibril ATPase assay; assay type: biochemical; conditions: 50 μM compound; for effect on skeletal MF ATPase activity (in words): pCa 8 to pCa 4
Protocol: (§1) Rabbit psoas and bovine cardiac myofibrils were prepared as described in our previous study ([17]). An enzyme-coupled, NADH-linked ATPase assay was used to measure skeletal and cardiac myofibril ATPase activity in 96-well microplates at 23 °C. Ionic strength was maintained below 0.2 M, so myofilaments remained insoluble and stable ([32]). To achieve optimal enzymatic activities, buffers for skeletal and cardiac myofibrils differed slightly ([33], [34]): skeletal in 50 mM MOPS, 100 mM KCl, 5 mM MgCl2, 1 mM EGTA, pH 7.0; cardiac in 20 mM MOPS, 35 mM NaCl, 5 mM MgCl2, 1 mM EGTA, pH 7.0. Each well in the microplate contained an assay mix of 0.84 mM phosphoenolpyruvate, 0.17 mM NADH, 10 U/vol pyruvate kinase, 20 U/vol lactate dehydrogenase. The concentration of free Ca^2+ was controlled by EGTA buffering ([35]). Myofibrils were dispensed in microplates with a multichannel pipette and were incubated with assay mix plus compound of interest for 20 min at 23 °C. The concentration of myofibrils used was 0.01 mg/ml for skeletal and 0.05 mg/ml for cardiac myofibrils. The assay was started upon the addition of ATP, at a final concentration of 2.1 mM (total volume to 200 μl), and absorbance was recorded at 340 nm in a SpectraMax Plus microplate spectrophotometer from Molecular Devices. The steady-state myofibrillar ATPase rate was measured from NADH oxidation, measured as the rate of decrease in absorption at 340 nm for 30 min, with absorption data collected every 15 s. All data and statistical analysis of steady-state kinetics were conducted with the OriginPro program. The results were fitted with the Hill equation:(6) V=V0+(Vmax/1+10^−n∗^(pCa50−pCa)) where V is the ATPase rate and n is the Hill coefficient.
ATPase activity is reported on the μmol ATP/mg protein/min scale. Average data are presented as mean ± SD. Sample means are derived from three different myofibril preps (N = 3), each done in duplicate (n = 6).
The effects of compounds on ATPase activity of myofibrils were determined in the presence of 50 μM compound, across a 12-point pCa range from 4.0 (activation) to 8.0 (relaxation). The calcium sensitivity (pCa50) was determined by fitting the curves to the Hill equation. In all experiments, a 1% DMSO-only control was included. The normalized ATPase activity of the selected compounds can be found in Figure 6.

[2] = test system: bovine cardiac (left ventricular) myofibrils; experiment: Cardiac myofibril ATPase assay; assay type: biochemical; conditions: 50 μM compound; for effect on cardiac MF ATPase activity (in words): pCa 8 to pCa 4
Protocol: as §1, with “V=V0+(Vmax/1+10^−n∗^(pCa50−pCa)) where V” left out, “coefficient. ATPase activity is reported on the μmol ATP/mg protein/min scale. Average data are presented as mean ± SD. Sample means are derived from three different myofibril preps (N = 3), each done in duplicate (n = 6). The effects of compounds on ATPase activity of myofibrils were determined in the presence of 50 μM compound, across a 12-point pCa range from 4.0 (activation) to 8.0 (relaxation). The calcium sensitivity (pCa50) was determined by fitting the curves to the Hill equation. […] The normalized ATPase activity of the selected compounds can be found in Figure 6.” for “coefficient.”

[3] = test system: fC1-C2 binding to Alexa Fluor 568-actin; experiment: AF568-actin-MyBP-C FLT binding assay (Fig. S1); conditions: Suramin 20 µM, NF023 50 µM, ATA 20 µM
[4] = test system: TMR-MyBP-C (cC0-C2, sC1-C2S, sC1-C2L, fC1-C2); experiment: Compound effects on TMR-MyBP-C lifetime (Fig. S2); assay type: binding; conditions: Suramin 20 µM, NF023 50 µM, ATA 20 µM
From the text: For FLT-TMR experiments, the same samples were excited at 532 nm.
Compound effects on TMR-MyBP-C lifetime. […] All values are the average ± SD. n=5.

[5] = test system: FMAL-actin/TMR-cC0-C2 interaction; experiment: FLT-FRET concentration-response assay, FMAL-actin plus TMR-cC0-C2; assay type: binding, human; conditions: unphosphorylated cC0-C2
Method in brief: (§2)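 Hits tested at eight concentrations (0.5–100 μM) and read on a high-throughput fluorescence lifetime plate reader. Hill fits applied only under certain conditions.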

[6] = biological target: actin (Oryctolagus cuniculus) (UniProt P68135); experiment: FLT; conditions: cited from earlier work
[7] = biological target: actin (Oryctolagus cuniculus) (UniProt P68135); experiment: cosedimentation; conditions: cited from earlier work
[8] = biological target: actin (Oryctolagus cuniculus) (UniProt P68135); experiment: FLT; conditions: cited from earlier work; remark: listed apart in the source
[9] = biological target: actin (Oryctolagus cuniculus) (UniProt P68135); experiment: cosedimentation; conditions: cited from earlier work; remark: listed apart in the source
TMR-cC0-C2 = experiment: Selleck library HTS, 532 nm excitation (FLT of TMR-cC0-C2 in presence of FMAL-actin); assay type: binding, human
[10] = test system: FMAL-actin plus TMR-cC0-C2; experiment: Selleck library HTS, 473 nm excitation (FLT of FMAL-actin with TMR-cC0-C2, FLT-FRET); assay type: binding, human
Method in brief: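 Donor fluorescence lifetime was then recorded. Waveforms were fit to a single exponential, and ΔFLT was obtained after a moving-median plate-gradient correction (half-row window), rescaled by the median DMSO lifetime.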

[11] = test system: PKA-phosphorylated TMR-cC0-C2 (cC0-C2#P); experiment: FLT-TMR concentration-response assay, PKA-phosphorylated cC0-C2; assay type: binding, human; conditions: 60 μM compound
Method in brief: as §2

[12] = test system: TMR-cC0-C2 (C0-C2 fragment of human cMyBP-C); experiment: FLT-TMR concentration-response assay (FLT of TMR on cC0-C2, no actin); assay type: binding; conditions: 60 μM compound
Method in brief: as §2

[13] = test system: TMR-fC1-C2 (C1-C2 of fast skeletal MyBP-C); experiment: FLT-TMR concentration-response assay, fC1-C2; assay type: binding; conditions: 60 μM compound
Method in brief: as §2

[14] = robust z-score, hit threshold ±4, 30 μM compound

| Molecule | effect on Ca^2+-sensitivity of skeletal MF ATPase (in words) [1] | effect on skeletal MF ATPase activity (in words) [1] | effect on Ca^2+-sensitivity of cardiac MF ATPase (in words) [2] | effect on cardiac MF ATPase activity (in words) [2] | effect on binding of fC1-C2 (2 µM) to Alexa Fluor 568-actin (1 µM) (in words) [3] | effect on FLT of TMR-MyBP-C, all MyBP-C isoforms (in words) [4] | effect on FLT-FRET / binding between FMAL-actin and TMR-cC0-C2 (in words) [5] | further results |
| --- | --- | --- | --- | --- | --- | --- | --- | --- |
| Cc1ccc(C(=O)Nc2ccc(S(=O)(=O)O)c3cc(S(=O)(=O)O)cc(S(=O)(=O)O)c23)cc1NC(=O)c1cccc(NC(=O)Nc2cccc(C(=O)Nc3cc(C(=O)Nc4ccc(S(=O)(=O)O)c5cc(S(=O)(=O)O)cc(S(=O)(=O)O)c45)ccc3C)c2)c1 [Suramin] | eliminated the Ca^2+-sensitivity | showed activation at low Ca^2+; also recorded: strongest effect | eliminated the Ca^2+-sensitivity | remained at levels similar to those at low Ca^2+; also recorded: strongest effect | decreased the binding | increased | eliminates binding |  |
| O=C(O)C1=CC(=C(c2ccc(O)c(C(=O)O)c2)c2ccc(O)c(C(=O)O)c2)C=CC1=O [ATA, Aurintricarboxylic acid] |  |  |  |  | decreased the binding | decreased |  |  |
| cardiac MyBP-C C0-C2 (from UniProt Q14896) |  |  |  |  |  |  |  | Kd [6]: 2.5 µM; Kd [7]: 6.5 µM; Kd [8]: 19 µM; Kd [9]: 4.3 µM |
| Enoxaparin sodium | negligible | reduced at high Ca^2+ | significant decrease in Ca^2+-sensitivity | reduced at high Ca^2+; also recorded: specific for cardiac myofibril ATPase effects |  |  | decrease | 532-nm Δτ, Repeat 1 (TMR-cC0-C2; initial screen, 30 μM compound): -0.023 ns; 532-nm Δτ, Repeat 2 (TMR-cC0-C2; initial screen, 30 μM compound): -0.033 ns; 532-nm z-score (based on avg Δτ) (TMR-cC0-C2; [14]): -1.67; 473-nm Δτ, Repeat 1 ([10]; initial screen, 30 μM compound): 0.190 ns; 473-nm Δτ, Repeat 2 ([10]; initial screen, 30 μM compound): 0.190 ns; 473-nm z-score (based on avg Δτ) [10, 14]: 10.68; cC0-C2#P FLT change (% change from DMSO, FLT of TMR-MyBP-C) [11]: 6.9%; cC0-C2/cC0-C2#P (ratio of FLT changes) [12]: 0.4; cC0-C2 FLT change (% change from DMSO, FLT of TMR-MyBP-C) [12]: 3.1%; Ca^2+-sensitivity (pCa50) of cardiac MF ATPase in presence of compound ([2]; 5.77 ± 0.03 in the absence of the drug): 5.55 ± 0.03; cC0-C2/fC1-C2 (ratio of FLT changes) [13]: 1.1; fC1-C2 FLT change (% change from DMSO, FLT of TMR-MyBP-C) [13]: 2.8% |
| O=C(Nc1cccc(C(=O)Nc2ccc(S(=O)(=O)O)c3cc(S(=O)(=O)O)cc(S(=O)(=O)O)c23)c1)Nc1cccc(C(=O)Nc2ccc(S(=O)(=O)O)c3cc(S(=O)(=O)O)cc(S(=O)(=O)O)c23)c1 [NF023] |  |  | affected | affected | decreased the binding | increased |  |  |
